Measured values: patent US20250376473A1, “PRMTS INHIBITOR AND USE THEREOF” (Cytosinlab Therapeutics Co., Ltd., priority 2022, published 2025)
Like-named read-outs stand apart in the source and are kept apart here.

What was measured:
[1] = tested on: HCT116-MTAP-KO cells (HCT116 MTAP null); experiment: Proliferation inhibition of HCT116 MTAP-KO cells in vitro (CellTiter Glo); assay type: cell-based; details: HCT116-MTAP null, 144 h, 6 days, 9 concentrations starting from 3 μM, read-out: Cell proliferation inhibition rate HCT116 MTAP null IC50 (nm)
Description: (§1) Biological Test Example 2 Proliferation Inhibition of HCT116 and HCT116 MTAP-KO Cells in Vitro
(§2) HCT116 cell line was purchased from the Chinese Academy of Sciences Cell Bank, and the MTAP gene was knocked out by CRISPR/Cas9 technology to obtain HCT116-MTAP-KO cell line.
(§3) McCoy's 5A medium (Gibco, catalog No. 16600082), fetal bovine serum (Gibco, catalog No. 10099141C), penicillin-streptomycin double antibody (Gibco, catalog No. 15140122), pancreatic enzyme (Gibco, catalog No. 25200056), CellTiter Glo assay kit (Promega, catalog No. G7572), 384-well transparent flat-bottomed black walled cell culture plate (Corning, catalog No. 3764), ultra micro sampler (Tecan, catalog No.D300e), Multimode reader (Biotek, catalog No. SynergyHTX)
(§4) 1. Cell culture: HCT116 and HCT116-MTAP-KO cells were cultured in McCoy'5A medium+10% fetal bovine serum+1% penicillin-streptomycin double antibody; to ensure that they were always in the logarithmic growth phase and the cell viability greater than 95%.
(§5) 2. Compound concentration gradient preparation: The compound to be tested was added to a 384-well plate using an ultra micro sampler, starting from 30 μM (HCT116 cells) or 3 μM (HCT116-MTAP-KO cells), and diluted with DMSO at 3 times for a total of 9 concentrations and set up three duplicate wells.
(§6) 3. Treatment of cells with compounds: Trypsin-digested HCT116 or HCT116-MTAP-KO cell suspension was added to the 384-well plates spotted with the compounds to be tested at 40 μL per well, i.e., 100 cells per well, and the final concentration of DMSO was 0.4%. The cell culture plate was incubated at 37° C. in a 5% CO2 incubator for 6 days.
(§7) 4. Detection: 20 μL of CellTiter Glo reagent was added to each well of the cell culture plate and incubated at room temperature for 30 minutes. A multimode reader was used to detect the luminescence signal at […].
(§8) The data was fitted with GraphPad Prism 8.0 software using a four parameter inhibitor-reaction model to obtain the IC50 value (half inhibitory concentration) of the test compounds.

[2] = tested on: HCT116 MTAP WT cells; experiment: Proliferation inhibition of HCT116 cells in vitro (CellTiter Glo); assay type: cell-based; details: 6 days, 9 concentrations starting from 30 μM, read-out: Cell proliferation inhibition rate HCT116 MTAP WT IC50 (nm)
Description: as §1, §2, §3, §4, §5, §6, §7, §8

Cc1ncc2c(N)nc3cc(F)c(C(=O)N(Cc4ccc(OC5CC5)nn4)c4ccnn4C)cc3n12 [Example 215]
IC50 [1]: < 0.1 µM | IC50 ([2]; Homo sapiens, HCT-116, 144 h): 1 to 10 µM

Cc1ncc2c(N)nc3cc(F)c(C(=O)N(Cc4ccc(OC5COC5)cn4)c4ccnn4C)cc3n12 [Example 217]
IC50 [1]: < 0.1 µM | IC50 ([2]; Homo sapiens, HCT-116, 144 h): 1 to 10 µM

Cc1ncc2c(N)nc3cc(F)c(C(=O)N(Cc4ccc(N5CC(F)(F)C5)cn4)c4ccnn4C)cc3n12 [Example 219]
IC50 [1]: < 0.1 µM | IC50 ([2]; Homo sapiens, HCT-116, 144 h): 1 to 10 µM

COCCn1cc(CN(C(=O)c2cc3c(cc2F)nc(N)c2cnc(C)n23)c2ccnn2C)cn1 [Example 221]
IC50 [1]: 0.1 to 1 µM | IC50 ([2]; Homo sapiens, HCT-116, 144 h): 1 to 10 µM

Cc1ncc2c(N)nc3cc(F)c(C(=O)N(Cc4ccc(C(F)(F)F)nn4)c4ccnn4C)cc3n12 [Example 223]
IC50 [1]: < 0.1 µM | IC50 ([2]; Homo sapiens, HCT-116, 144 h): 1 to 10 µM

Cc1ncc2c(N)nc3cc(F)c(C(=O)N(Cc4cnn(C5CCOCC5)c4)c4ccnn4C)cc3n12 [Example 227]
IC50 [1]: 0.1 to 1 µM | IC50 ([2]; Homo sapiens, HCT-116, 144 h): 1 to 10 µM

Cc1ncc2c(N)nc3cc(F)c(C(=O)N(Cc4ncc(C(F)(F)F)cc4F)c4ccnn4C)cc3n12 [Example 228]
IC50 [1]: < 0.1 µM | IC50 ([2]; Homo sapiens, HCT-116, 144 h): 0.1 to 1 µM

Cc1ncc2c(N)nc3cc(F)c(C(=O)N(Cc4ccc(S(F)(F)(F)(F)F)cc4)c4ccnn4C)cc3n12 [Example 229]
IC50 [1]: < 0.1 µM | IC50 ([2]; Homo sapiens, HCT-116, 144 h): 0.1 to 1 µM

Cc1ncc2c(N)nc3cc(F)c(C(=O)N(Cc4cnn(C5COC5)c4)c4ccnn4C)cc3n12 [Example 231]
IC50 [1]: 0.1 to 1 µM | IC50 ([2]; Homo sapiens, HCT-116, 144 h): 1 to 10 µM

Cc1ncc2c(N)nc3cc(F)c(C(=O)N(Cc4ccncn4)c4ccnn4C)cc3n12 [Example 232]
IC50 [1]: 0.1 to 1 µM | IC50 ([2]; Homo sapiens, HCT-116, 144 h): 1 to 10 µM

Cc1ncc2c(N)nc3cc(F)c(C(=O)N(Cc4cnn(-c5ccccn5)c4)c4ccnn4C)cc3n12 [Example 234]
IC50 [1]: < 0.1 µM | IC50 ([2]; Homo sapiens, HCT-116, 144 h): 1 to 10 µM

COC1CCC1N(Cc1cn2cc(C(F)(F)F)ccc2n1)C(=O)c1cc2c(cc1F)nc(N)c1cnc(C)n12 (stereo not drawn) [Example 240]
IC50 [1]: < 0.1 µM | IC50 ([2]; Homo sapiens, HCT-116, 144 h): 1 to 10 µM

Cc1ncc2c(N)nc3cc(F)c(C(=O)N(Cc4cn5ccccc5n4)C(C)C(F)(F)F)cc3n12 (stereo not drawn) [Example 243]
IC50 [1]: 0.1 to 1 µM | IC50 ([2]; Homo sapiens, HCT-116, 144 h): 1 to 10 µM

CCN(Cc1cn2cc(C(F)F)ccc2n1)C(=O)c1cc2c(cc1F)nc(N)c1c(C)ncn12 [Example 244]
IC50 [1]: < 0.1 µM | IC50 ([2]; Homo sapiens, HCT-116, 144 h): 1 to 10 µM

COc1ccc(C2COCC(C)N2C(=O)c2cc3c(cc2F)nc(N)c2cnc(C)n23)nn1 (stereo not drawn) [Example 271]
IC50 [1]: < 0.1 µM | IC50 ([2]; Homo sapiens, HCT-116, 144 h): 1 to 10 µM

Cc1ncc2c(N)nc3cc(F)c(C(=O)N4C(C)COCC4c4ccc(C(F)(F)F)cn4)cc3n12 (stereo not drawn) [Example 273]
IC50 [1]: < 0.1 µM | IC50 ([2]; Homo sapiens, HCT-116, 144 h): 1 to 10 µM

Cc1ncc2c(N)nc3cc(F)c(C(=O)N4C(C)COCC4c4ccc(C(F)(F)F)cc4)cc3n12 (stereo not drawn) [Example 275]
IC50 [1]: < 0.1 µM | IC50 ([2]; Homo sapiens, HCT-116, 144 h): 1 to 10 µM

COc1ccc(C2COCC(C)N2C(=O)c2cc3c(cc2F)nc(N)c2c(C)ncn23)nn1 (stereo not drawn) [Example 278]
IC50 [1]: 0.1 to 1 µM | IC50 ([2]; Homo sapiens, HCT-116, 144 h): 0.1 to 1 µM

Cc1ncn2c1c(N)nc1cc(F)c(C(=O)N3C(C)COCC3c3ccc(C(F)(F)F)cn3)cc12 (stereo not drawn) [Example 280]
IC50 [1]: < 0.1 µM | IC50 [2]: 0.1 to 1 µM

Cc1ncn2c1c(N)nc1cc(F)c(C(=O)N3C(C)COCC3c3ccc(C(F)(F)F)cc3)cc12 (stereo not drawn) [Example 282]
IC50 [1]: < 0.1 µM | IC50 ([2]; Homo sapiens, HCT-116, 144 h): 1 to 10 µM

CCN(Cc1cn2cc(C(F)(F)F)ccc2n1)C(=O)c1cc2c(cc1F)nc(N)c1c(C)ncn12 [Example 285]
IC50 [1]: < 0.1 µM | IC50 ([2]; Homo sapiens, HCT-116, 144 h): 1 to 10 µM

Cc1ncn2c1c(N)nc1ccc(C(=O)N(Cc3nc(-c4cccnn4)cs3)CC(C)C)cc12 [Example 294]
IC50 [1]: 0.1 to 1 µM | IC50 ([2]; Homo sapiens, HCT-116, 144 h): 1 to 10 µM

Cc1ncn2c1c(N)nc1ccc(C(=O)N(CC(C)C)C(C)c3nc(-c4ccccn4)cs3)cc12 (stereo not drawn) [Example 299]
IC50 [1]: < 0.1 µM | IC50 ([2]; Homo sapiens, HCT-116, 144 h): 1 to 10 µM

Cc1ncn2c1c(N)nc1ccc(C(=O)N(Cc3nc(N4CCOCC4)cs3)CC(C)C)cc12 [Example 301]
IC50 [1]: 0.1 to 1 µM | IC50 ([2]; Homo sapiens, HCT-116, 144 h): 1 to 10 µM
